system: P. falciparum 3D7 growth, pLDH absorbance; test: P. falciparum 3D7 growth inhibition, dose response, strain 3D7 (AID 2305)

| Structure (SMILES) | IC50 [µM] |
| --- | --- |
| CCN(CC)Cc1cc(Nc2ccnc3cc(Cl)ccc23)ccc1O | 0.16 |
| CCCCC(=O)NC(c1cccs1)c1cc(Cl)c2cccnc2c1O (stereo not drawn) | 0.38 |
| CC(C)n1ncc2c(C(=O)N3CCCCCC3)cc(-c3ccccc3)nc21 | 0.79 |
| Cc1ccc(-c2nc(Nc3ccncc3)c3ccccc3n2)s1 | 0.83 |
| c1ccc2c(NCCCCCCCNc3ccnc4ccccc34)ccnc2c1 | 0.17 |
| COc1ccc2nccc([C@@H](O)CN3CCC(NCc4cc5oc(=O)n(C)c5cc4F)CC3)c2c1 | 0.66 |
| Cc1cc(=O)c(C2CCC(c3ccc(Cl)cc3)CC2)c(C)[nH]1 (stereo not drawn) | 0.74 |
| Cn1cnc2c(SCc3ccc(OCc4ccccc4)cc3)ncnc21 | 0.56 |
| NC(N)=Nc1nc(-c2cccc(NC(=O)NCC(c3ccccc3)c3ccccc3)c2)cs1 | 0.79 |
| FC(F)(F)c1ccc2c(NN=Cc3cccc(Cl)c3)ccnc2c1 | 0.84 |
| O=C(c1cc(C(=O)Nc2ccccc2F)c(=O)n(-c2ccccc2F)c1)c1cc(Cl)ccc1O | 0.71 |
| O=C(NC1CCC(CN2CCC(c3c[nH]c4ccccc34)CC2)CC1)C1(O)c2ccccc2-c2ccccc21 (stereo not drawn) | 1.19 |
| CC(C)CNCc1cccc(-c2cccc(CNC3CCN(Cc4ccccc4)CC3)c2)c1 | 0.18 |
| CN(CCN)Cc1ccc(-c2ccc(-c3nc4ccc(F)cc4[nH]3)s2)cc1 | 1.07 |
| CN(C)[C@@H]1C(=O)C(C(N)=O)=C(O)[C@@]2(O)C(=O)C3=C(O)c4c(O)ccc(C#Cc5ccccn5)c4C[C@H]3C[C@@H]12 | 0.76 |
| CC(=NN=C(N)N)c1ccc2c(c1)Cc1ccccc1-2 | 1.41 |
| C[C@@H]1CN(c2cnn(Cc3ccc(NC(=O)Nc4ccc(F)cc4[N+](=O)[O-])cc3)c(=O)c2Cl)C[C@H](C)N1 | 0.81 |
| Cc1cccc(C)c1CNc1ccnc2cc(C#N)ccc12 | 0.68 |
| CCCCCCCC1=NN2C(=N)C(=Cc3cc(Br)c(OCc4ccc(F)cc4)c(OCC)c3)C(=O)N=C2S1 | 1.05 |

| Structure (SMILES) | IC50 [µM] |
| --- | --- |
| CCn1cc(C=C2Oc3c(ccc(O)c3CN3CCCCC3C)C2=O)c2ccccc21 (stereo not drawn) | 1.02 |
| COc1ccc2nccc([C@@H](O)CN3CCC(NCc4ccc5nc[nH]c(=O)c5c4)CC3)c2c1 | 0.92 |
| Cc1cc2nc(-c3ccc(C(=O)NC4CCN(Cc5ccccc5)CC4)s3)[nH]c2cc1C | 0.77 |
| COCCNCc1ncsc1-c1ccc2c(Nc3cc(O)c(Cl)cc3F)ccnc2c1 | 0.55 |
| COc1ccccc1NC(=O)c1cc(C(=O)c2cc(Cl)ccc2O)cn(-c2ccccc2OC)c1=O | 0.94 |
| Cc1c(F)cc(C(=O)NC2CC2)cc1-c1ccc2c(cnn2S(=O)(=O)c2ccc(C#N)cc2)c1 | 0.1 |
| COc1cccc(CN2CCCN(Cc3cccc(NC(=O)c4cc5ccccc5s4)c3)CC2)c1 | 1.01 |
| CC1(C)N=C(N)N=C(N)N1c1ccc(Oc2ccc(Cl)cc2)c(Cl)c1 | 0.08 |
| C=CCn1c(C)cc(C(=O)COc2ccc(S(=O)(=O)N3CCOCC3)cc2[N+](=O)[O-])c1C | 1.11 |
| Cn1nc(-c2cccc(CN[C@@H]3CCc4ccc(O)cc43)c2)c2cnc(NCCCN3CCCC3)nc21 | 0.83 |
| Cn1nc(-c2ccc(CN[C@@H]3CCc4ccc(O)cc43)cc2)c2cnc(NCCCN3CCCC3)nc21 | 0.8 |
| Cc1cc(OCCCN2CCCCC2)ccc1NC(=O)COc1ccc(Cl)cc1C(=O)c1cc(C#N)cc(C(F)(F)F)c1 | 1.03 |
| Cn1cnc(CCNC(=O)c2cccc(-c3csc(-c4nc5ccccc5[nH]4)c3)c2)c1 | 0.6 |
| O=C(NCCCCN1CCN(c2cccc(Cl)c2Cl)CC1)c1ccc2c(c1)CCN(C1CCC1)CC2 | 0.75 |
| COc1ccc2ncc(Cl)c(N3CCC(CCNCc4ccc5c(n4)NC(=O)CS5)CC3)c2c1 | 0.96 |
| Cc1[nH]c(C)c(-c2ccc(Oc3cccc(Cl)c3)cc2)c(=O)c1Cl | 0.02 |
| C[C@H](NC(=O)c1c(CN2CCC(N3CCCCC3=O)CC2)c(-c2cccs2)nc2ccccc12)C1CCCCC1 | 0.9 |
| CCNc1cc(C(=O)N[C@@H](Cc2ccccc2)[C@H](O)CNC(C)(C)Cc2cccc(OC)c2)cc(N2CCCC2=O)c1 | 0.71 |
| O=C(/C=C/c1ccc(Cl)c(Cl)c1)NCCCCCN1CCN(C(=O)Nc2ccc(Cl)c(C(F)(F)F)c2)CC1 | 0.82 |

Reference: PubChem BioAssay AID2305 (GlaxoSmithKline (GSK), 2010)
